Values of other authors, collected in patent publication US20060035883A1, “Novel serotonin receptor ligands and their uses thereof” (priority 2004, published 2006).

Key:
Conditions in all cases: read-out: Receptor affinities (Ki)
[1] = molecular target: D2 (Homo sapiens, UniProt P14416)
[2] = molecular target: T1, 5-HT2C (Homo sapiens, UniProt P28335)
T1 sequence (P28335 33-458): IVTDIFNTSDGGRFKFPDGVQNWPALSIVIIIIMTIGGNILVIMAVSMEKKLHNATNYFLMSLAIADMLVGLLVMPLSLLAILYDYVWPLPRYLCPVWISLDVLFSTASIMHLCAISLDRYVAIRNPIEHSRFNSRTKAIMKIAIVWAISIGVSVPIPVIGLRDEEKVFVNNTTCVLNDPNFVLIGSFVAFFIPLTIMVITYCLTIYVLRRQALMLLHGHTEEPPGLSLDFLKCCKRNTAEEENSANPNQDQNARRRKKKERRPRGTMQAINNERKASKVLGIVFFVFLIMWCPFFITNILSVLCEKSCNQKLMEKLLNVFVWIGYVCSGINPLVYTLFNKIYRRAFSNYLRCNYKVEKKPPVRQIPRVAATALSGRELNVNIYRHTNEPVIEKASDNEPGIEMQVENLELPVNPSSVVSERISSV

[3] = molecular target: T2, 5-HT3 (Homo sapiens, UniProt P46098)
T2 sequence (P46098 24-478): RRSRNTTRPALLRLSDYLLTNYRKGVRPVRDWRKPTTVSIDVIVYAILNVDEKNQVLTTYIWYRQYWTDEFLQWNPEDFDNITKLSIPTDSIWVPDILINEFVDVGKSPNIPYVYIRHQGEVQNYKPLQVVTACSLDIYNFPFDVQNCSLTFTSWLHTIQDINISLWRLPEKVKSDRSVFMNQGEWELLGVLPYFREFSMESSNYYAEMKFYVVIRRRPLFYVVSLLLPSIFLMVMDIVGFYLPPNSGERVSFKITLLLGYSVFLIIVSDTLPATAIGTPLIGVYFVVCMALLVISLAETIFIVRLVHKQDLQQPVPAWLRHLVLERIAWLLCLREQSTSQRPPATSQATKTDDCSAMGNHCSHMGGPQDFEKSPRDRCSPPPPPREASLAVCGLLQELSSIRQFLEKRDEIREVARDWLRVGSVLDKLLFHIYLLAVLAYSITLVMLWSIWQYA

[4] = molecular target: α1
[5] = molecular target: α2

Chain of D2 (P14416 whole entry): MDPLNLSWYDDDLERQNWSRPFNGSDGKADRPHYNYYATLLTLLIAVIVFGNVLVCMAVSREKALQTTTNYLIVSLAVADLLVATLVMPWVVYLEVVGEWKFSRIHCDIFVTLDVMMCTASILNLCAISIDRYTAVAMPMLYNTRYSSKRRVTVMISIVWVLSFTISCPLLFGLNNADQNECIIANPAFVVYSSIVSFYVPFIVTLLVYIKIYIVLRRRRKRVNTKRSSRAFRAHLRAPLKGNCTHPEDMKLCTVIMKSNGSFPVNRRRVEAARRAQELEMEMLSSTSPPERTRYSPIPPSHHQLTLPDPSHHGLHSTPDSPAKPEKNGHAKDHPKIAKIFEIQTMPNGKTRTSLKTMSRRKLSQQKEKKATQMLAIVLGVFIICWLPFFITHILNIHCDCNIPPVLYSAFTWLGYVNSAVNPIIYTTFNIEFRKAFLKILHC

SMILES	Ki [1] [nM]	Ki [2] [nM]	Ki [3] [nM]	Ki [4] [nM]	Ki [5] [nM]
CN1CCN2c3ccccc3Cc3ccccc3C2C1 (stereo not drawn) [Mianserin]	> 1000	–	–	–	–
CN1CCN2c3ncccc3Cc3ccccc3C2C1 (stereo not drawn) [Mirtazepine, mirtazepine]	> 1000	12	8	500	65
